Results as given in PubChem BioAssay AID248 (DTP/NCI, 2004).
Where “and” joins values, the source holds several entries; their conditions need not be identical. Equal values may be shown once. Toxic doses and inconclusive results are not listed. Cut-off read from the data, not from the text of the source: active = T/C of 150% or more; inactive = T/C below 125%.

Tested on: L1210 leukemia ip in BDF1 mice, survival T/C
Experiment: NCI In Vivo Anticancer Drug Screen. Data for tumor model L1210 Leukemia (intraperitoneal) in B6D2F1 (BDF1) mice
Conditions: endpoint: mean survival time, higher = longer survival
In short: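 Read-out is survival time, reported as the treated-group measurement over the vehicle-control measurement.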

[1] = dose: 50.0 mg/kg/injection, schedule: Q01DX001 (ip), vehicle: carboxymethylcellulose (CMC)
[2] = dose: 100.0 mg/kg/injection, schedule: Q01DX001 (ip), vehicle: carboxymethylcellulose (CMC)
[3] = dose: 200.0 mg/kg/injection, schedule: Q01DX001 (ip), vehicle: carboxymethylcellulose (CMC)
[4] = dose: 100.0 mg/kg/injection, schedule: Q01DX001 (ip), vehicle: saline
[5] = dose: 200.0 mg/kg/injection, schedule: Q01DX001 (ip), vehicle: saline
[6] = dose: 100.0 mg/kg/injection, schedule: Q04DX002 (ip), vehicle: Klucel (hydroxypropylcellulose) (HPC)
[7] = dose: 200.0 mg/kg/injection, schedule: Q04DX002 (ip), vehicle: Klucel (hydroxypropylcellulose) (HPC)
[8] = dose: 75.0 mg/kg/injection, schedule: Q01DX001 (ip), vehicle: saline
[9] = dose: 150.0 mg/kg/injection, schedule: Q01DX001 (ip), vehicle: saline
[10] = dose: 300.0 mg/kg/injection, schedule: Q01DX001 (ip), vehicle: saline
[11] = dose: 400.0 mg/kg/injection, schedule: Q01DX001 (ip), vehicle: carboxymethylcellulose (CMC)
[12] = dose: 50.0 mg/kg/injection, schedule: Q01DX009 (ip), vehicle: Klucel (hydroxypropylcellulose) (HPC)
[13] = dose: 100.0 mg/kg/injection, schedule: Q01DX009 (ip), vehicle: Klucel (hydroxypropylcellulose) (HPC)
[14] = dose: 200.0 mg/kg/injection, schedule: Q01DX009 (ip), vehicle: Klucel (hydroxypropylcellulose) (HPC)
[15] = dose: 400.0 mg/kg/injection, schedule: Q01DX009 (ip), vehicle: Klucel (hydroxypropylcellulose) (HPC)
[16] = dose: 25.0 mg/kg/injection, schedule: Q04DX002 (ip), vehicle: saline with Tween-80

Measured: T/C

CC1(C)C2CCC(O)C1C2 (configuration not stated)
inactive: dose: 100.0 mg/kg/injection, schedule: Q01DX001 (ip), vehicle: saline with Tween-80 104 % of control | dose: 200.0 mg/kg/injection, schedule: Q01DX001 (ip), vehicle: saline with Tween-80 97 % of control | dose: 400.0 mg/kg/injection, schedule: Q01DX001 (ip), vehicle: saline with Tween-80 90 % of control

C=COCCCCCCCCCCCCCCCCCC
inactive: dose: 100.0 mg/kg/injection, schedule: Q01DX001 (ip), vehicle: other 95 % of control | dose: 200.0 mg/kg/injection, schedule: Q01DX001 (ip), vehicle: other 95 % of control | dose: 400.0 mg/kg/injection, schedule: Q01DX001 (ip), vehicle: other 96 % of control

Cc1ccc(S(=O)(=O)OCCN(CCOS(=O)(=O)c2ccc(C)cc2)c2ccc(C=O)cc2)cc1
inactive: [1] 114 % of control | [2] 102 % of control and 120 % of control | dose: 175.0 mg/kg/injection, schedule: Q01DX001 (ip), vehicle: carboxymethylcellulose (CMC) 121 % of control | [3] 98 % of control and 122 % of control | dose: 265.0 mg/kg/injection, schedule: Q01DX001 (ip), vehicle: carboxymethylcellulose (CMC) 116 % of control | dose: 600.0 mg/kg/injection, schedule: Q01DX001 (ip), vehicle: carboxymethylcellulose (CMC) 115 % of control

C(=N\Nc1ccc2ccccc2n1)/c1ccccn1
inactive: dose: 9.5 mg/kg/injection, schedule: Q01DX001 (ip), vehicle: other 94 % of control | dose: 19.0 mg/kg/injection, schedule: Q01DX001 (ip), vehicle: other 103 % of control | dose: 38.0 mg/kg/injection, schedule: Q01DX001 (ip), vehicle: other 94 % of control | dose: 75.0 mg/kg/injection, schedule: Q01DX001 (ip), vehicle: other 108 % of control

O=[N+]([O-])c1ccc(O)c(I)c1
inactive: [4] 97 % of control | dose: 100.0 mg/kg/injection, schedule: Q04DX003 (ip), vehicle: saline 100 % of control | [5] 98 % of control | dose: 200.0 mg/kg/injection, schedule: Q04DX003 (ip), vehicle: saline 105 % of control | dose: 400.0 mg/kg/injection, schedule: Q01DX001 (ip), vehicle: saline 95 % of control | dose: 400.0 mg/kg/injection, schedule: Q04DX003 (ip), vehicle: saline 102 % of control

O=S(=O)(O)SCC1=NCCN1
inactive: dose: 25.0 mg/kg/injection, schedule: Q04DX002 (ip), vehicle: saline 103 % of control | dose: 50.0 mg/kg/injection, schedule: Q04DX002 (ip), vehicle: saline 93 % of control | dose: 100.0 mg/kg/injection, schedule: Q04DX002 (ip), vehicle: saline 98 % of control

COc1ccc(C(=O)C(C)CN2CCCCC2)cc1 (configuration not stated)
inactive: [4] 96 % of control | [5] 107 % of control

O=C1Cc2ccccc2N1C(=O)c1ccccc1
inactive: dose: 50.0 mg/kg/injection, schedule: Q04DX002 (ip), vehicle: Klucel (hydroxypropylcellulose) (HPC) 97 % of control | [6] 101 % of control | [7] 90 % of control

CCC(COC(=O)c1ccccc1)NC1CCCC1 (configuration not stated)
inactive: [8] 102 % of control | [9] 103 % of control | [10] 111 % of control

ClCc1c(Cl)cccc1Cl
inactive: [6] 97 % of control | [7] 97 % of control | dose: 400.0 mg/kg/injection, schedule: Q04DX002 (ip), vehicle: Klucel (hydroxypropylcellulose) (HPC) 97 % of control

COc1cc2c(C)cc(=O)oc2cc1O
inactive: [2] 98 % of control | [11] 93 % of control

Cc1cc2ccccn2c1C(=O)c1ccccc1
inactive: [2] 107 % of control | dose: 100.0 mg/kg/injection, schedule: Q01DX009 (ip), vehicle: carboxymethylcellulose (CMC) 106 % of control | dose: 100.0 mg/kg/injection, schedule: Q04DX002 (ip), vehicle: carboxymethylcellulose (CMC) 98 % of control and 102 % of control | dose: 100.0 mg/kg/injection, schedule: Q04DX003 (ip), vehicle: carboxymethylcellulose (CMC) 102 % of control | [3] 98 % of control | dose: 200.0 mg/kg/injection, schedule: Q01DX009 (ip), vehicle: carboxymethylcellulose (CMC) 96 % of control and 106 % of control | dose: 200.0 mg/kg/injection, schedule: Q04DX002 (ip), vehicle: carboxymethylcellulose (CMC) 94 % of control and 107 % of control | dose: 200.0 mg/kg/injection, schedule: Q04DX003 (ip), vehicle: carboxymethylcellulose (CMC) 102 % of control | [11] 98 % of control | dose: 400.0 mg/kg/injection, schedule: Q01DX009 (ip), vehicle: carboxymethylcellulose (CMC) 95 % of control and 102 % of control | dose: 400.0 mg/kg/injection, schedule: Q04DX002 (ip), vehicle: carboxymethylcellulose (CMC) 93 % of control and 102 % of control | dose: 400.0 mg/kg/injection, schedule: Q04DX003 (ip), vehicle: carboxymethylcellulose (CMC) 102 % of control

C/C=C(/C(=O)NC(N)=O)C(C)C
inactive: dose: 25.0 mg/kg/injection, schedule: Q01DX009 (ip), vehicle: Klucel (hydroxypropylcellulose) (HPC) 114 % of control | [12] 97 % of control | [13] 111 % of control | [14] 103 % of control | [15] 103 % of control

O=[N+]([O-])c1ccc(O)c(C2N(Cc3ccc(N(CCCl)CCCl)cc3)CCCN2Cc2ccc(N(CCCl)CCCl)cc2)c1
inactive: [1] 109 % of control | dose: 100.0 mg/kg/injection, schedule: Q01DX001 (ip), vehicle: Klucel (hydroxypropylcellulose) (HPC) 93 % of control | [2] 109 % of control | [13] 93 % of control | dose: 100.0 mg/kg/injection, schedule: Q04DX003 (ip), vehicle: Klucel (hydroxypropylcellulose) (HPC) 103 % of control | dose: 200.0 mg/kg/injection, schedule: Q01DX001 (ip), vehicle: Klucel (hydroxypropylcellulose) (HPC) 95 % of control | [3] 118 % of control | [14] 98 % of control | dose: 200.0 mg/kg/injection, schedule: Q04DX003 (ip), vehicle: Klucel (hydroxypropylcellulose) (HPC) 97 % of control | dose: 400.0 mg/kg/injection, schedule: Q01DX001 (ip), vehicle: Klucel (hydroxypropylcellulose) (HPC) 95 % of control | [15] 94 % of control | dose: 400.0 mg/kg/injection, schedule: Q04DX003 (ip), vehicle: Klucel (hydroxypropylcellulose) (HPC) 95 % of control

CCCCCCCCCCCCCCCC1CCCC(C)N1 (configuration not stated)
inactive: dose: 6.25 mg/kg/injection, schedule: Q04DX002 (ip), vehicle: saline with Tween-80 104 % of control | dose: 12.5 mg/kg/injection, schedule: Q04DX002 (ip), vehicle: saline with Tween-80 96 % of control | [16] 100 % of control

CCc1ccc(NC(=O)NCCCl)cc1
inactive: [12] 89 % of control | [2] 87 % of control | [13] 89 % of control | [6] 105 % of control | [3] 106 % of control | [14] 92 % of control | [7] 113 % of control | [11] 106 % of control

O=C(O)C(F)(F)C(F)(F)C(F)(F)F.O=C(O)C(F)(F)C(F)(F)C(F)(F)F.O=C(O)C(F)(F)C(F)(F)C(F)(F)F.O=C(O)C(F)(F)C(F)(F)C(F)(F)F.[Rh].[Rh]
inactive: [16] 94 % of control | dose: 50.0 mg/kg/injection, schedule: Q04DX002 (ip), vehicle: saline with Tween-80 102 % of control | dose: 100.0 mg/kg/injection, schedule: Q04DX002 (ip), vehicle: saline with Tween-80 105 % of control

CCCCCCCCCCN1C(=O)C(Cl)=C(Cl)C1=O
inactive: dose: 25.0 mg/kg/injection, schedule: Q04DX003 (ip), vehicle: saline with Tween-80 103 % of control | dose: 50.0 mg/kg/injection, schedule: Q04DX003 (ip), vehicle: saline with Tween-80 94 % of control

Cc1cc(Cc2cc(C)c(O)c(C(C)(C)C)c2)cc(C(C)(C)C)c1O
inactive: dose: 50.0 mg/kg/injection, schedule: Q04DX002 (ip), vehicle: other 93 % of control | dose: 100.0 mg/kg/injection, schedule: Q04DX002 (ip), vehicle: other 87 % of control | dose: 200.0 mg/kg/injection, schedule: Q04DX002 (ip), vehicle: other 90 % of control

C#CCCCCCC#[C][Hg][C]#CCCCCCC#C.C#CCCCCCC#[C][Hg][C]#CCCCCCC#C
inactive: [8] 90 % of control | [9] 92 % of control | [10] 95 % of control

CCOC(=O)c1cc(Cl)cc(C(=O)OCC)n1
inactive: dose: 100.0 mg/kg/injection, schedule: Q01DX009 (ip), vehicle: saline with Tween-80 111 % of control | dose: 200.0 mg/kg/injection, schedule: Q01DX009 (ip), vehicle: saline with Tween-80 107 % of control | dose: 400.0 mg/kg/injection, schedule: Q01DX009 (ip), vehicle: saline with Tween-80 102 % of control
